The results in this text go back to US10501452B2, “Lactam compound derivative and application thereof” (NHWA PHARMA. CORPORATION, priority 2015, dated 2019).

Data set [1] relates to conditioned avoidance response in rats. Briefly: animal or person. The data set is classed as in vivo, rat. The method, then:
[…] of SD rats, male.
Firstly, training the rats with shuttle box:
(1) The rats were allowed for adaption for five minutes;
(2) Conditioned stimulus (CS, light and noise) were started and lasted for 20 s, and at the tenth second, unconditioned stimulus (US, 1.5 mA electric shock) was performed and lasted for 10 s;
(3) Training was conducted 30 times per day for 9 days. The interval between two trainings was set randomly ranged from 20 to 30 s;
(4) Observation indicators:
The animal ran to another compartment during the conditioning stimulus was recorded as “avoidance”;
Animals ran to another compartment during the electric shock was recorded as “escape”;
Grouping of the qualified rats: the qualified rats were divided into negative control group, positive drug groups of each dosage, and compound groups of each dosage according to the principle of randomization, 8 in each group.
Administration Method: Corresponding solvent was administered intragastrically to the negative control group; corresponding dosages of positive drugs were administered intragastrically to the positive drug groups of each dosage; and corresponding dosages of compounds were administered intragastrically to the compound groups of each dosage.
CAR Assay: A CAR assay was performed 1 hour after intragastric administration. The method was the same as the CAR training. The observation indicators were the number of avoidances, the number of escapes, and the number of escape failures.
Statistical Data Processing: Assay data are presented as mean±standard deviation (Mean±SD), the comparison was performed by a combination of one-way ANOVA with post-hoc LSD. The ED50 was calculated using the probit method.

For a further data set, the target named is Histamine H1 receptor (Cavia porcellus (Guinea pig), UniProt P31389). In words: Histamine H1 receptor binding assay (3H-pyrilamine). The method, then:
Preparation of Histamine H1 Receptor Membrane
Guinea pigs were decapitated. […] Vortex mixer was used for blending. Centrifugation was conducted at 48000 g, 4° C. for 10 min. The supernatant was discarded to give pellets, and buffer was added again for washing. Centrifugation was conducted and repeated 3 times.
(§1) Materials for the Receptor Binding Assay
(2) 100 μL of membrane preparation was added into each reaction tube.

In another data set the target is 5-HT2A (Rattus norvegicus (Rat), UniProt P14842). Briefly: 5-HT2A receptor binding assay ([3H]-Ketanserin).
Sequence of 5-HT2A (P14842 whole entry): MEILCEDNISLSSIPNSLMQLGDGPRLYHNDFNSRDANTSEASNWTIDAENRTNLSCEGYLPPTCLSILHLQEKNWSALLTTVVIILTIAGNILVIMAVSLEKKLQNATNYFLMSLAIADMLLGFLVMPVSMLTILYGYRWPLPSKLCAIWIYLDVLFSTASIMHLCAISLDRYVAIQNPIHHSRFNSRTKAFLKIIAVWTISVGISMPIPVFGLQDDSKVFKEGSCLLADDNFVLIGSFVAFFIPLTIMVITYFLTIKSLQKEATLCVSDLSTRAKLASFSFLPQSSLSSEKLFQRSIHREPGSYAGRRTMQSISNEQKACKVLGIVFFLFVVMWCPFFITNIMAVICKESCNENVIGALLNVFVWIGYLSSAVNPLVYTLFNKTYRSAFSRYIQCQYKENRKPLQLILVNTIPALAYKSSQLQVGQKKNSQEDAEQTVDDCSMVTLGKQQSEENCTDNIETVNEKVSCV
For another data set, the target named is 5-HT7 receptor (Rattus norvegicus (Rat), UniProt P32305). In words: 5-HT7 receptor binding assay ([3H]-5-CT). The protocol:
Adult SD rats were decapitated. […] Centrifugation was conducted (repeated 3 times).
as §1

Data set [2] relates to Apomorphine induced clambering in mice. In words: Apomorphine induced clambering assay of mice. It is filed as in vivo. The method, then: Healthy KM mice, male, with body weight of 18-22 g, were provided by Qinglongshan Animal Cultivation Center, Nanjing.
Apomorphine provided by Sigma Company was dissolved in 0.9% NaCl (containing 0.1% vitamin C) before use, and was freshly formulated before use.
Vitamin C, F20061113, was provided by Sinopharm Chemical Reagent Co. Ltd.
Instruments: self-made clambering cage, chronograph.
Procedures: apomorphine induced clambering assay of mice
After 5 min of adaptation, the behavior of the mice at 10-11, 20-21, and 30-31 min after the injection of apomorphine were observed and scored.

Data set [3] is described as follows: Acute toxicity study (rats). The note with it: both sexes, KM, in vivo, po, 2000 mg/kg; rat, intragastric. The protocol: (§2) Example 41: Acute Toxicity Study
(§3) Limit test of sequential assay: KM rats or mice (half male and half female) were randomly divided into several groups (with 2-5 mice in each group), which were respectively the 2000 mg/kg groups for each compound, and the solvent group. 0.2 ml/10 g were administered intragastrically. The deaths of the animals in 3 days were observed. In the case 3 or more animals survived in 3 days without notable abnormity in their life states, the observation was continued until the assay was completed in 7 days. In the case 3 or more animals died in 3 days, the method of median lethal dose was used to determine the LD50.
(§4) Results: The compound of the invention has relatively low acute toxicity.

A further data set concerns mice. Briefly: Acute toxicity study (mice). It is filed as in vivo. The note with it: intragastric. The method, then: as §2, §3
(§5) Pre-assay for the method of the median lethal dose: KM mice (half male and half female) were randomly divided into several groups (with 4 mice in each group), which were respectively the 500 mg/kg, 200 mg/kg, 50 mg/kg groups for each compound, and the solvent group. 0.2 ml/10 g were administered intragastrically, and the deaths of the animals in 1-3 days were observed.
as §4

Data set [4] in a line: Acute toxicity study (mice). The data set is classed as in vivo. The note with it: both sexes, KM, mouse, in vivo, po, intragastric. The method, then: as §2, §3, §5, §4
The target in a further data set is 5-HT1A (Rattus norvegicus (Rat), UniProt P19327). Briefly: 5-HT1A receptor binding assay (3H-8-OH-DPAT). The method, then:
Rats were decapitated. […] Incubation at 37° C. was conducted for 10 min. […] Centrifugation was conducted and repeated 3 times.
as §1

A further data set is described as follows: in vivo. The note with it: both, Kunming, mouse, in vivo, po. The protocol:
(§6) The durations of the mice to maintain the posture with the two forepaws on the bars were recorded, and 30 s of spasticity without moving was considered as the positive response. In the case the forepaws of the mice were not put down persistently, the observation was terminated at 60 s. The numbers of animals with positive response in each of the compound dosage groups were counted.

In a further data set the test system is catalepsy in mice. Briefly: in vivo. The note with it: mouse, in vivo. The method, then:
as §6

Sequence of Histamine H1 receptor (P31389 whole entry): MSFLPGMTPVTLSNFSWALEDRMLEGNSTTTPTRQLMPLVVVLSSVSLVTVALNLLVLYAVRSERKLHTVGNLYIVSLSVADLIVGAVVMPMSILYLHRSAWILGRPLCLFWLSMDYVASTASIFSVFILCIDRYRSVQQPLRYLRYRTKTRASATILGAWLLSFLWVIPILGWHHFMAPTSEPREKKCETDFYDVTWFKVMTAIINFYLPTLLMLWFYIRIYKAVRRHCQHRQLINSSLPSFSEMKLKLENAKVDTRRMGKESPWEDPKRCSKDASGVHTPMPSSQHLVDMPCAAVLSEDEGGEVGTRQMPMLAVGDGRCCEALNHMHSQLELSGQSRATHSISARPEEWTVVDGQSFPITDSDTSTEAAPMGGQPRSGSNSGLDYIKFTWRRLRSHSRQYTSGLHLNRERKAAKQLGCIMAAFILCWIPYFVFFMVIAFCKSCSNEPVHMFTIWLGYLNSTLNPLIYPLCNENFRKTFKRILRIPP
Sequence of 5-HT1A (P19327 whole entry): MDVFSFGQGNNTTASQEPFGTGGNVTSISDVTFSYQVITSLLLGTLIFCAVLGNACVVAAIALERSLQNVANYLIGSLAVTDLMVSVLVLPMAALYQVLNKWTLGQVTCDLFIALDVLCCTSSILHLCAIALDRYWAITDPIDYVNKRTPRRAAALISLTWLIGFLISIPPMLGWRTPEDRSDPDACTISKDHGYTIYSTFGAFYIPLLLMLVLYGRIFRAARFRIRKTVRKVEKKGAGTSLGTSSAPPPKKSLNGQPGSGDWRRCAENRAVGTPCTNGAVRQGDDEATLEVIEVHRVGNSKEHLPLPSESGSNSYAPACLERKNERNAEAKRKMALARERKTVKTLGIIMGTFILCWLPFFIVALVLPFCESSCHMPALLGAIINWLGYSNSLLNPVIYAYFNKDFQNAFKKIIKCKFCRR
Sequence of 5-HT7 receptor (P32305 whole entry): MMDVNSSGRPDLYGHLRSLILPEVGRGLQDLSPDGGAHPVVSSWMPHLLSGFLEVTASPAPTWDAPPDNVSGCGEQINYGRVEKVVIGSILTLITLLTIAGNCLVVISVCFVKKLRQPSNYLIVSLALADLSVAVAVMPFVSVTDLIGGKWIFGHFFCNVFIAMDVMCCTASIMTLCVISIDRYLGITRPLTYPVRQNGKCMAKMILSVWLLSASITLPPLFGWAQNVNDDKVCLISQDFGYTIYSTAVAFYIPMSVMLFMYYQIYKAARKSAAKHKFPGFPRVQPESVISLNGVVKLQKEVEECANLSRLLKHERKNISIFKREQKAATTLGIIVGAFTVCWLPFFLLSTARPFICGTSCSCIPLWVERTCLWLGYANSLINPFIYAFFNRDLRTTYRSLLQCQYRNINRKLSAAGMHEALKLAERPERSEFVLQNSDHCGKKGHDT
Procedure for 5-HT2A: Rats were decapitated. Cortex of brain was rapidly taken on ice, and 3 ml of buffer (0.05 M Tris-HCl buffer: 6.05 g of Tris was dissolved in 1000 ml of double-distilled water, and concentrated HCl was used to adjust to pH 7.5) was added, homogenization was conducted, and then 5 ml of buffer was added. Incubation was conducted at 37° C. for 10 min, the weight of the tubes were adjusted using a balance after incubation. Centrifugation was conducted at 12000 rpm, 4° C. for 20 min, the supernatant was discarded, and 3 ml of buffer was added. Vortex mixer was used for blending, and then 5 ml of buffer was added. Centrifugation was conducted (repeated 3 times). After the centrifugation, the supernatant was discarded, and the pellets were stored at −80° C. for future use.
(1) The prepared membrane was applied with buffer, and homogenizer was used for evenly dispersing. 15 tubes were mixed into a 100 ml container, and appropriate amount of buffer was added to give 50 ml of membrane suspension, which was reserved for future use.
(2) 100 μL of membrane preparation and 100 μL of buffer were added into each reaction tube.
(3) 100 μL of buffer was added into the total binding tube (TB), 100 μL of Methysergide (final concentration 10^−5M) was added into the nonspecific binding tube (NB), 100 μL of the test compound (final concentration 10^−5M) was added into the specific binding tube (SB) of each test compound.
(5) Each of the reaction tubes was incubated at 37° C. for 15 min. After the reaction was completed, the bound ligands were rapidly filtered under reduced pressure, and sufficiently washed with ice-chilled assay buffer. The filter was taken out and put into a 3 ml scintillation vial, and 2 ml of toluene scintillation cocktail was added and blended.
(6) The scintillation vial were put into Liquid Scintillation Counter for counting. Inhibition rate(I%)=(Total binding tube cpm−compound cpm)/(Total binding tube cpm−nonspecific binding tube cpm)×100%

The Ki is a measure of affinity in units of concentration, obtained from inhibition or displacement. One may read the LD50 as the dose expected to kill half of the subjects tested. For `CN1CCc2ccc(OCCCN3CCC(c4noc5cc(F)ccc45)CC3)cc2C1=O` [Compound 5, 7-(3-(4-(6-fluorobenzo[d]isoxazol-3-yl)piperidin-1-yl)propoxy)-2-methyl-3,4-dihydroisoquinolin-1(2H)-one], the ED50 turned out to be 0.32 mg/kg in data set [1] (Rattus norvegicus, po, 1 h, read-out: Rat CAR ED50 (mg/kg)); 0.05 mg/kg in [2] (Mus musculus, po, read-out: Apomorphine induced clambering (ED50, po, mg/kg)); 35 mg/kg in “in vivo”. In addition, in data set [1] (rat, compared with risperidone), the “performance in the rat CAR model (in words)” value is “markedly better than risperidone”. The “affinity for H1 (in words)” value at Histamine H1 receptor is “low affinity”. Besides, the Ki on Histamine H1 receptor (guinea pig cerebellum membrane, 3H-pyrilamine) is above 2000 nM; at 5-HT2A (read-out: Ki (nM) 5-HT2A, rat cortex membrane, [3H]-Ketanserin), 0.1 nM; at 5-HT7 receptor (rat hypothalamus membrane, [3H]-5-CT), 5.9 nM; at 5-HT1A (rat cortex membrane, 3H-8-OH-DPAT), 2.4 nM. Besides, the “affinity for 5-HT2A (in words)” value at 5-HT2A is reported as “strong affinities”. The “affinity for 5HT7 (in words)” value on 5-HT7 receptor is listed as “high affinity”. The “improvement of apomorphine induced clambering symptoms (in words)” value in [2] (mice, compared with risperidone) was “effectively improve”. In data set [3], this compound returned an LD50 at 3 days of 168 mg/kg. Moreover, in the data set with mice, the “LD50 (po, mg/kg)” value came to 257 mg/kg. In data set [4], this compound gave an LD50 of 258 mg/kg. Further, on 5-HT1A, the “affinity for 5-HT1A (in words)” value was “strong affinities”. Also, the Catalepsy/Apomorphine induced clambering in the data set with catalepsy in mice (both, Kunming (KM)) is 700. Further, the “Catalepsy/MK-801 induced high activity” value with catalepsy in mice (both, Kunming (KM)) turned out to be 875. For the same compound, the “EPS in effective dosage (in words)” value with catalepsy in mice is “do not cause EPS”.
